Experimental data as given in paper PMC7023064, “Design, Synthesis, and Evaluation of Novel 2-Methoxyestradiol Derivatives as Apoptotic Inducers through an Intrinsic Apoptosis Pathway” (Biomolecules, 2020).
Read-outs that look alike come from different tables or passages of the source.

Assays:
[1] = tested on: human breast adenocarcinoma MCF-7 cell lines; test: MTT cytotoxicity assay, MCF-7; type: cell-based
Description: Human breast adenocarcinoma MCF-7 cell lines, human breast cancer MDA-MB-231 cell lines, and the normal human liver L-O2 cell lines were provided by Nanjing KeyGen Biotech Co. Ltd. (Nanjing, China). MCF-7 cells were cultured in a base medium (90% RPMI-1640 and 10% FBS) at 37 °C, 5% CO2 and a saturated humidity atmosphere. MDA-MB-231 cells were cultured in a base medium (90% […] and 10% FBS) at 37 °C, 5% CO2 and a saturated humidity atmosphere. L-O2 cells were cultured in a base medium (90% DMEM and 10% FBS) at 37 °C, 5% CO2 and a saturated humidity atmosphere.
The cytotoxicity of the tested compounds was determined using the 3-(4,5-dimethyl-2-thiazolyl)-2,5-diphenyl-2-H-tetrazolium bromide (MTT) assay. Cells were seeded in 96-well plates and incubated in a 5% CO2 incubator at 37 °C. When the cells adhered, compounds at different concentrations were added to every well. After incubation for another 72 h, MTT solution (5 mg/mL) was added into each well and cells were incubated for an additional 4 h. The viable cells were stained with MTT and scanned with an electrophotometer at 570 nm. Each concentration treatment was done in triplicate wells. The half maximal inhibitory concentration (IC50) values were estimated by fitting the inhibition data to a dose-dependent curve using a logistic derivative equation.

[2] = tested on: MCF-7 cells; test: Western blotting of apoptosis proteins; type: cell-based, human; conditions: 0, 5, 10, and 20 µM, 72 h, β-actin as control
Description: After the treatment of MCF-7 cells with compound 11/12a (0, 5, 10, and 20 μM) for 72 h, the total proteins of MCF-7 cells were extracted and their concentrations were balanced to the same level by BCA protein assay reagent (KGP902, KeyGen Biotech Co. Ltd., Nanjing, China), followed by 8 min of protein denaturation with SDS loading buffer at 100 °C. Proteins were separated by sodium dodecyl sulfate-polyacrylamide electrophoresis (SDS-PAGE) and transferred onto polyvinylidene fluoride (PVDF) membranes, which were blocked with 5 mL of 5% fat-free dry milk in 1× Tris-buffered saline (TBS) containing 0.05% Tween 20 for 2 h. Then the membranes were incubated with Apaf-1 (Abcam, no: ab234436), Bax (Abcam, no: ab32503), Bcl-2 (Abcam, no: ab692), Bcl-xL (Abcam, no: ab32370), caspase-3 (Abcam, no: ab184787), caspase-8 (Abcam, no: ab25901), caspase-9 (Abcam, no: ab219590), cytochrome c (Abcam, no: ab133504), and β-actin (Abcam, no: ab8226) antibodies at 4 °C overnight, followed by treatment with secondary horseradish-peroxidase-conjugated anti-rabbitIgG (KeyGen Biotech Co. Ltd., no: KGAA35) for 2 h. Membranes were finally scanned in a ChemiDoc MP Imaging System (Bio-Rad) after 2 min incubation in Clarity Western ECL Substrate (Bio-Rad).

[3] = biological target: T1, estradiol receptor alpha (ERα) (Homo sapiens, UniProt P03372); test: Immunohistochemical (IHC) analysis of ERα; type: cell-based; conditions: 5, 10, and 20 μM, MCF-7 cells, dose-dependent
T1 construct: endogenous in cells; host or cells: MCF-7
T1 sequence (P03372 1-595): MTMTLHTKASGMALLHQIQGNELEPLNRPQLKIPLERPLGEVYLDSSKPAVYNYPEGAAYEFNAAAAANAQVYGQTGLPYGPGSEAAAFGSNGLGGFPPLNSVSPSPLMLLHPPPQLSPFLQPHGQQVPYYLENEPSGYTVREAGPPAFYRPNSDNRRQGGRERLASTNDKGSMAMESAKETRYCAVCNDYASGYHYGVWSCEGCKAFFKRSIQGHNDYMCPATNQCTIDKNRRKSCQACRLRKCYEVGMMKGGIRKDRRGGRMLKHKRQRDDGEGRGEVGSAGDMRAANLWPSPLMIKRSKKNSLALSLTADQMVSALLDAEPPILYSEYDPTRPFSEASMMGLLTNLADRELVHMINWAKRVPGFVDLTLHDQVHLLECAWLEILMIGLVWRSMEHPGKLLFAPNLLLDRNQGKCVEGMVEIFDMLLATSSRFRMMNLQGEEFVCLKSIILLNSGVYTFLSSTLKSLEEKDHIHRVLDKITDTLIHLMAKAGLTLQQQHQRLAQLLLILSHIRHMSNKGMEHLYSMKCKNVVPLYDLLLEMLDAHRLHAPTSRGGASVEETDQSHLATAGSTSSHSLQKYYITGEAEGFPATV
Description: MCF-7 cells were seeded in culture plates and treated with compound 11/12a (0, 5, 10, and 20 μM) for 72 h. Cells were collected and mounted on a slide, fixed for 30 min with 4% paraformaldehyde, and washed three times with PBS. 1% Triton X-100 was added to each cell sample, and it was permeabilized at room temperature for 10 min, then washed three times with PBS. Two drops of 3% H2O2-methanol solution were added to each cell section. After being blocked at room temperature for 10 min, the section was washed three times with PBS. Then, 50–100 μL of ready-to-use goat serum was added and cells were incubated for 20 min at room temperature. Before the cell section was incubated at 37 °C for 2 h in a wet box, 50–100 μL of a primary antibody (1:200 dilution) against estradiol receptor alpha (ERα) (Bs-1427R, Bioss Co. Ltd., Beijing, China) was added, and then washed three times with PBS. Subsequently, 50 μL of enhancer was added and cells were incubated for 30 min at room temperature, then washed three times with PBS. Fifty microliters of a universal IgG antibody-Fab fragment-HRP multimer was added dropwise, and the mixture was incubated at 37 °C for 30 min, then soaked and washed three times with PBS. After 2 drops of freshly prepared DAB (DAB-1031, MaXi Biotech Co. Ltd., FuZhou, China) solution were added to each cell section, the dyeing depth was observed under the microscope. […]

`COc1cc2c(cc1O)CC[C@@H]1[C@@H]2CC[C@]2(C)[C@@H](OCCCCCCCCn3c(=O)ccn([C@@H]4O[C@H](CO)[C@@H](O)[C@H]4O)c3=O)CC[C@@H]12` [Compound 11, 17 β-[8-(1-β-D-Ribofuranosyluracil-3-yl)-Octyloxy]-2-Methoxy-Estra-1,3,5(10)-Triene-3-ol] was tested, and the IC50 ([1]; Homo sapiens, MCF7, MTT, 72 h, mean ± SD of three experiments, read-out: IC50 MCF-7) was 13.9 ± 0.16 µM, the IC50 ([1]; Homo sapiens, MCF7, Table 2, mean ± SD of three experiments, read-out: IC50 for MCF-7) was 13.9 ± 0.16 µM and the IC50 ([1]; Homo sapiens, MCF7, pIC50 = −log(IC50), read-out: pIC50 for MCF-7 (converted)) was 13.8 µM. For the same compound, the “protein expressions of Apaf-1, Bax, caspase-3, caspase-8, caspase-9, and cytochrome c” value [2] was “increased in a dose-dependent manner”, the “protein expressions of Bcl-2 and Bcl-xL” value [2] was “obviously decreased” and the “interaction with ERα (nuclear colour, IOD value)” value [3] was “specific binding”.
In the case of “17 β-[6-(Uracil-3-yl)-Hexyloxy]-2-Methoxy-Estra-1,3,5(10)-Triene-3-ol [Compound 12a]”, the IC50 ([1]; MTT, 72 h, mean ± SD of three experiments, read-out: IC50 MCF-7) is reported as 11.2 ± 0.46 µM, the IC50 ([1]; Table 2, mean ± SD of three experiments, read-out: IC50 for MCF-7) is reported as 11.2 ± 0.46 µM and the “pIC50 for MCF-7” value ([1]; pIC50 = −log(IC50)) is reported as 4.95. For the same compound, the “protein expressions of Apaf-1, Bax, caspase-3, caspase-8, caspase-9, and cytochrome c” value [2] was “increased in a dose-dependent manner”, the “protein expressions of Bcl-2 and Bcl-xL” value [2] was “obviously decreased” and the “interaction with ERα (nuclear colour, IOD value)” value [3] was “specific binding”.
